One data set is described as follows: Solubility test. Type of data set: physicochemical. As to conditions: thermodynamic from solid, 0.1 g compound + 1 mL solvent, heated at 40°C for 10 min., returned to room temperature, visual observation. The protocol:
By using 4-(3-ethoxybutyl)phenol obtained in the above-mentioned Production Example 1, the following solubility test was carried out. Note here that as a comparison target, 4-(3-hydroxybuty)phenol was used.
To 0.1 g of each compound, 1 mL of each solvent described in the following table 1 was added. The mixture was heated at 40°C for 10 min., and then the temperature was returned to room temperature. The solubility in the solvent at this time was evaluated by visual observation. The evaluation was carried out in which a case where it was dissolved was evaluated as "a" and a case where insolubles were left was evaluated as "b."

Data set [1] relates to cultured skin model containing melanin cells (MEL-300, Asian Doner, manufactured by Kurabo Industries, Ltd.). As to the kind of experiment: Melanin production inhibition test using three-dimensional cultured skin model. Type of data set: cell-based. As to conditions: 336 h, cultured for 14 days, read-out: Melanin production inhibition rate (% with respect to control); for inhibition at 100 µM: Addition concentration 100 µM; for inhibition at 50 µM: Addition concentration 50 µM. The text has this:
4-(3-alkoxybutyl)phenol obtained in the above-mentioned Production Example 1 was subjected to the below-mentioned melanin production inhibition test. Note here that as a comparison target, 4-(3-hydroxybutyl)phenol in which an alkyl group had been removed from 4-(3-alkoxybutyl)phenol -and 4-(3-acetoxybutyl)phenol and 4-(3-propanoyloxybutyl)phenol as an ester compound having the same number of carbon atoms, were used.
To a skin model cup of a cultured skin model containing melanin cells (MEL-300, Asian Doner, manufactured by Kurabo Industries, Ltd.), 0.2 mL of a solution of a test substance was placed, and the skin model was cultured for 14 days by using an LLMM medium attached to the product. During the culture period, the medium was replaced by a new medium every three days. After culture for 14 days, the skin model was washed, the survival rate was measured by fluorescence measurement (Excitation: 560 nm, Emission: 590 nm) using an AlamarBlue reagent (manufactured by Molecular Probe), and the amount of melanin synthesized in each skin model was measured. The amount of melanin synthesized was determined by the colorimetric determination (405 nm) of a solution obtained by immersing each skin model in PBS so as to separate a cell layer, then washing it with PBS and hydrous ethanol, adding 0.2 mL of a 2N NaOH aqueous solution, and extracting melanin at 100°C for three hours.

In a further data set the test system is B16 melanoma cells. As to the kind of experiment: in vitro melanin production inhibition test. Type of data set: cell-based. As to conditions: Mus musculus, concentration inhibiting production of melanin by 50%, cultured for 72 hours, theophylline 2 mmol/L, melanin per unit amount of protein. The protocol:
The 4-(3-alkoxybutyl)phenol compound obtained in the above-mentioned Production Example 1 was subjected to the following melanin production inhibition test. Note here that as a comparison target, arbutin, ascorbic acid, kojic acid, and linoleic acid, which are known to have a melanin production-inhibitory action, were used. B16 melanoma cells were seeded in a minimum essential medium (MEM) supplemented with 10 vol% fetal bovine serum in 12-well plates at 1 × 10^4 cells/well, and pre-cultured for 24 hours by a usual method. After pre-culture, the medium was replaced to a test medium to which each evaluation sample had been added at various concentrations, and the medium was cultured for 72 hours. As the test medium, the above-mentioned pre-culture medium to which theophylline had been added at 2 mmol/L was used. After culture, cells were collected and dissolved in 1 mol/L of an aqueous solution of sodium hydroxide containing 10 vol% dimethyl sulfoxide, and an OD475 value of the solution was measured and the value was defined as an index of the amount of melanin. Furthermore, at the same time, by using Coomasie Plus Protein Assay Kit (manufactured by PIERCE), the total amount of protein in the solution was measured, and the amount of melanin per unit amount of protein was calculated. Based on the amount of melanin per unit amount of protein, the melanin production inhibition rate was calculated per each addition concentration from the following formula. Melanin production inhibition rate (%) = (A-B)/A [formula] (wherein A denotes the amount of melanin per unit amount of protein when no sample was added, and B denotes the amount of melanin per unit amount of protein when a sample was added). Next, a graph in which the concentration of the added sample is plotted on the axis of abscissas, and a melanin production inhibition rate is plotted in the axis of ordinates was formed, and concentration at which each evaluation sample inhibits the production of melanin by 50% (IC50) was determined from this graph.

The mark [2] stands for this setting: oil or lipid, Glyceryl tri(2-ethylhexanoate).
[3] abbreviates: oil or lipid, Isocetyl myristate.
The mark [4] stands for this setting: oil or lipid, Methylphenyl polysiloxane (Silicon FZ209).
The mark [5] stands for this setting: oil or lipid, Octyldodecyl myristate.
[6] abbreviates: organic solvent or mixture, Dipropylene glycol.
[7] abbreviates: organic solvent or mixture, Ethanol.

Among the data in EP2556819A1, “EXTERNAL SKIN PREPARATION” (Kao Corporation, priority 2010, dated 2011) are solubility, inhibition and IC50 values, retold here.

In brackets after ≈: the same amount, converted by molar mass. Some results are limits rather than exact numbers.

Turning to `CC(O)CCc1ccc(O)cc1` (stereo not drawn) [4-(3-Hydroxybutyl)phenol, 4-(3-hydroxybutyl)phenol, reference compound], the solubility (in general, how much of the substance goes into solution per volume) at 10 min is < 100 mg/mL in the data set “Solubility test” (setting [2]); < 100 mg/mL in the data set “Solubility test” (setting [3]); < 100 mg/mL in the data set “Solubility test” (setting [4]); > 100 mg/mL in “Solubility test” (setting [5]); > 100 mg/mL in the data set “Solubility test” (setting [6]); > 100 mg/mL in “Solubility test” (setting [7]). Moreover, the inhibition (commonly the percentage by which the read-out fell short of the control) at 100 µM in data set [1] amounted to 18.6%.
Take `CCOC(C)CCc1ccc(O)cc1` (stereo not drawn) [4-(3-Ethoxybutyl)phenol, 4-(3-ethoxybutyl)phenol]: the solubility at 10 min in the data set “Solubility test” (setting [2]), in the data set “Solubility test” (setting [3]), in the data set “Solubility test” (setting [4]), in “Solubility test” (setting [5]), in the data set “Solubility test” (setting [6]) and in the data set “Solubility test” (setting [7]) was > 100 mg/mL in each case. Further, the IC50 – broadly, the concentration that gives 50% inhibition – in the data set on B16 melanoma cells is 2 µg/mL (≈ 10.3 µM). For the same molecule, in data set [1], the inhibition at 100 µM was 56%.
Take `CCC(=O)OC(C)CCc1ccc(O)cc1` (stereo not drawn) [4-(3-Propanoyloxybutyl)phenol, 4-(3-propanoyloxybutyl)phenol, reference compound]: in data set [1], the inhibition at 50 µM was determined as 18.4%.
Turning to `CC(=O)OC(C)CCc1ccc(O)cc1` (stereo not drawn) [4-(3-Acetoxybutyl)phenol, 4-(3-acetoxybutyl)phenol, reference compound], the inhibition at 100 µM in data set [1] was 26.7%.
Take `OC[C@H]1O[C@@H](Oc2ccc(O)cc2)[C@H](O)[C@@H](O)[C@@H]1O` [Arbutin, arbutin, reference compound]: in the data set with B16 melanoma cells, the IC50 was found to be 30 µg/mL (≈ 110 µM).
Molecule `CCCOC(C)CCc1ccc(O)cc1` (stereo not drawn) [4-(3-Propoxybutyl)phenol, 4-(3-propoxybutyl)phenol] gave an IC50 in the data set with B16 melanoma cells of 2.5 µg/mL (≈ 12 µM). In addition, in data set [1], the inhibition at 50 µM was determined as 69.5%.
`CCCCC/C=C\C/C=C\CCCCCCCC(=O)O` [Linoleic acid, linoleic acid, reference compound] had an IC50 in the data set on B16 melanoma cells of 4 µg/mL (≈ 14.3 µM).
Turning to `COC(C)CCc1ccc(O)cc1` (stereo not drawn) [4-(3-Methoxybutyl)phenol, 4-(3-methoxybutyl)phenol], the IC50 with B16 melanoma cells is 2 µg/mL (≈ 11.1 µM). In data set [1], the inhibition at 100 µM stood at 55.6%.
In turn, `CC(C)OC(C)CCc1ccc(O)cc1` (stereo not drawn) [4-(3-Isopropoxybutyl)phenol, 4-(3-isopropoxybutyl)phenol] yielded an IC50 with B16 melanoma cells of 2 µg/mL (≈ 9.6 µM). The inhibition at 50 µM in data set [1] was 56.9%.
In the data set on B16 melanoma cells, `O=C1O[C@H]([C@@H](O)CO)C(O)=C1O` [Ascorbic acid, ascorbic acid, reference compound] showed an IC50 of 60 µg/mL (≈ 341 µM).
As to `O=c1cc(CO)occ1O` [Kojic acid, kojic acid, reference compound], in the data set on B16 melanoma cells, the IC50 came out at 180 µg/mL (≈ 1270 µM).
